The supplement of paper PMC10307832

Key:
Assay in all cases: relative viability (nuclei count vs DMSO), 5 days (fraction); higher = more cells survive
Bortezomib + Linsitinib = compound: CC(C)C[C@H](NC(=O)[C@H](Cc1ccccc1)NC(=O)c1cnccn1)B(O)O [Bortezomib] + C[C@]1(O)C[C@@H](c2nc(-c3ccc4ccc(-c5ccccc5)nc4c3)c3c(N)nccn32)C1 [Linsitinib] (partner 1 µM)
Outline: (§1)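 Relative viability is defined as nuclei in treated wells over nuclei in vehicle wells. Duplicate plates were run and medians reported. Lung cancer cell lines in 1536-well plates were dosed by pin tool one day after seeding, with one drug or with a fixed anchor-drug dose plus five library-drug doses (not always all listed) in √10 steps, and nuclei were counted after 5 days.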

[1] = compound: CC1=CC(=NN1)NC2=CC(=NC(=N2)/C=C/C3=CC=CC=C3)N4CCN(CC4)C + C[C@@H](Oc1cc(-c2cnn(C3CCNCC3)c2)cnc1N)c1c(Cl)ccc(F)c1Cl [Crizotinib] (partner 1 µM)
Outline: as §1

Bortezomib + Trametinib = compound: CC(C)C[C@H](NC(=O)[C@H](Cc1ccccc1)NC(=O)c1cnccn1)B(O)O [Bortezomib] + CC(=O)Nc1cccc(-n2c(=O)n(C3CC3)c(=O)c3c(Nc4ccc(I)cc4F)n(C)c(=O)c(C)c32)c1 [Trametinib] (partner 0.02 µM)
Outline: as §1

Bortezomib + Navitoclax = compound: CC(C)C[C@H](NC(=O)[C@H](Cc1ccccc1)NC(=O)c1cnccn1)B(O)O [Bortezomib] + CC1(C)CCC(c2ccc(Cl)cc2)=C(CN2CCN(c3ccc(C(=O)NS(=O)(=O)c4ccc(N[C@H](CCN5CCOCC5)CSc5ccccc5)c(S(=O)(=O)C(F)(F)F)c4)cc3)CC2)C1 [Navitoclax] (partner 0.5 µM)
Outline: as §1

Cell Line	relative viability (Bortezomib + Linsitinib; first compound 0.0002 µM)	relative viability (Bortezomib + Linsitinib; first compound 0.000632 µM)	relative viability (Bortezomib + Linsitinib; first compound 0.002 µM)	relative viability (Bortezomib + Linsitinib; first compound 0.006325 µM)	relative viability (Bortezomib + Linsitinib; first compound 0.02 µM)	relative viability ([1]; first compound 0.08 µM)	relative viability ([1]; first compound 0.253 µM)	relative viability ([1]; first compound 0.8 µM)	relative viability ([1]; first compound 2.53 µM)	relative viability ([1]; first compound 8 µM)	relative viability (Bortezomib + Trametinib; first compound 0.0002 µM)	relative viability (Bortezomib + Trametinib; first compound 0.000632 µM)	relative viability (Bortezomib + Trametinib; first compound 0.002 µM)	relative viability (Bortezomib + Trametinib; first compound 0.006325 µM)	relative viability (Bortezomib + Trametinib; first compound 0.02 µM)	relative viability (Bortezomib + Navitoclax; first compound 0.0002 µM)	relative viability (Bortezomib + Navitoclax; first compound 0.000632 µM)	relative viability (Bortezomib + Navitoclax; first compound 0.002 µM)	relative viability (Bortezomib + Navitoclax; first compound 0.006325 µM)	relative viability (Bortezomib + Navitoclax; first compound 0.02 µM)
NCI-H1666	0.791	0.777	0.932	0.226	0.2	0.969	0.863	0.822	0.453	0.187	0.918	0.972	0.914	0.599	0.522	0.832	1.08	0.848	0.211	0.196
NCI-H1437	1.04	1.1	0.885	0.0922	0.101	0.773	0.922	0.898	0.999	0.225	0.537	0.584	0.551	0.178	0.226	1.08	1.09	1.1	0.118	0.123
NCI-H1944	1.13	1.06	1.06	1.23	0.627	1.04	1.24	1.11	0.62	0.275	0.43	0.371	0.397	0.297	0.193	1.06	0.992	1.12	1.05	0.887
SK-MES-1	1.08	1.06	1.1	0.54	0.189	0.96	1.01	0.903	0.422	0.133	0.506	0.546	0.533	0.215	0.158	1.24	1.28	1.22	0.198	0.146
NCI-H1792	0.526	0.594	0.352	0.537	0.221	0.942	0.982	0.966	0.815	0.165	0.506	0.413	0.446	0.292	0.0651	0.622	0.582	0.638	0.633	0.582
NCI-H1355	0.85	0.777	0.615	0.837	0.124	1	1.04	1.07	0.756	0.253	0.432	0.468	0.457	0.216	0.118	0.85	0.95	0.737	0.604	0.139
SK-LU-1	0.986	1.04	1.42	0.174	0.159	1.01	0.792	0.725	0.274	0.137	0.505	0.436	0.43	0.202	0.173	0.781	0.83	0.903	0.0872	0.0835
NCI-H2228	0.671	0.717	0.506	0.157	0.133	0.586	0.45	0.33	0.0992	0.0441	0.469	0.505	0.32	0.123	0.0916	1	1.05	0.368	0.0925	0.0601
NCI-H2347	0.93	0.92	0.848	0.29	0.325	0.855	0.784	0.545	0.573	0.262	0.263	0.283	0.193	0.243	0.232	0.513	0.847	0.651	0.197	0.193
A-427	1.06	1.03	1.1	1.16	0.285	0.878	0.878	0.937	0.399	0.0861	0.657	0.842	0.696	0.216	0.161	0.91	1.01	0.963	0.988	0.112
HCC-366	0.494	0.574	0.677	0.51	0.0152	0.6	0.628	0.357	0.0171	0.01	0.333	0.371	0.433	0.181	0.0229	0.945	1.03	1.04	0.949	0.0281
HCC-78	0.509	0.394	0.458	0.128	0.18	0.365	0.372	0.352	0.32	0.146	0.799	0.699	0.312	0.196	0.233	0.766	0.794	0.467	0.16	0.178
PC-14	0.941	0.917	0.974	0.152	0.0932	0.831	1	0.872	0.494	0.0811	0.788	0.799	0.356	0.0475	0.0434	1.02	0.941	0.992	0.0667	0.0697
